According to ChEMBL document CHEMBL2424622, “Development of amino-pyrimidine inhibitors of c-Jun N-terminal kinase (JNK): kinase profiling guided optimization of a 1,2,3-benzotriazole lead” (Bioorg Med Chem Lett, 2013):

Columns and labels:
[1] = biological target: T1, Serine/threonine-protein kinase D1 (Homo sapiens) (UniProt Q15139); assay: Competitive binding affinity to PRKD1 (unknown origin) at 10 uM in presence of ATP relative to control
T1 sequence (whole entry): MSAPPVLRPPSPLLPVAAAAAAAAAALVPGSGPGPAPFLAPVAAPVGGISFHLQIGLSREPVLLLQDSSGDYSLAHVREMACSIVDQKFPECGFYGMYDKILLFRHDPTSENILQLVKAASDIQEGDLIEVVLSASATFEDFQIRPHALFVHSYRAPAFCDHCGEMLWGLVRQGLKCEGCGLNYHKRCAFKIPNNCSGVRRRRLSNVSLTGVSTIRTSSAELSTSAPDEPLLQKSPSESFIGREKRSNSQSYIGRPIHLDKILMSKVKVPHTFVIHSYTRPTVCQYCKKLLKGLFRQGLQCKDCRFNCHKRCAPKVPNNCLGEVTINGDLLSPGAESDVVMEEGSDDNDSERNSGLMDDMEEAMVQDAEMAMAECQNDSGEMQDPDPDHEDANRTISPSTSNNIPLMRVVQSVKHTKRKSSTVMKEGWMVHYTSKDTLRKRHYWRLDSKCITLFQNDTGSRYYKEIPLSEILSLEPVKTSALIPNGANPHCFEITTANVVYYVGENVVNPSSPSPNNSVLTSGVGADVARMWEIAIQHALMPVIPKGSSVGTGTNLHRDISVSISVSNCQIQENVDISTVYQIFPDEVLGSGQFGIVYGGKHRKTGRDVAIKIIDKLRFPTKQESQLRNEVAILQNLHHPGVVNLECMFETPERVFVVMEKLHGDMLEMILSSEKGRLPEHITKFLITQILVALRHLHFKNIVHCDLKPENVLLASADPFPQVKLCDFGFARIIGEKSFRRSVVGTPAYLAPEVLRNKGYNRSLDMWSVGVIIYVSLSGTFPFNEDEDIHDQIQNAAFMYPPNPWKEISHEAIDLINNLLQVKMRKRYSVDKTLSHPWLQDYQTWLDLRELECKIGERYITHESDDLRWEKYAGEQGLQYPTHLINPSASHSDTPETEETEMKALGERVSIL

[2] = biological target: T2, Mitogen-activated protein kinase kinase kinase kinase 3 (Homo sapiens) (UniProt Q8IVH8); assay: Competitive binding affinity to MAP4K3 (unknown origin) at 10 uM in presence of ATP relative to control
T2 sequence (whole entry): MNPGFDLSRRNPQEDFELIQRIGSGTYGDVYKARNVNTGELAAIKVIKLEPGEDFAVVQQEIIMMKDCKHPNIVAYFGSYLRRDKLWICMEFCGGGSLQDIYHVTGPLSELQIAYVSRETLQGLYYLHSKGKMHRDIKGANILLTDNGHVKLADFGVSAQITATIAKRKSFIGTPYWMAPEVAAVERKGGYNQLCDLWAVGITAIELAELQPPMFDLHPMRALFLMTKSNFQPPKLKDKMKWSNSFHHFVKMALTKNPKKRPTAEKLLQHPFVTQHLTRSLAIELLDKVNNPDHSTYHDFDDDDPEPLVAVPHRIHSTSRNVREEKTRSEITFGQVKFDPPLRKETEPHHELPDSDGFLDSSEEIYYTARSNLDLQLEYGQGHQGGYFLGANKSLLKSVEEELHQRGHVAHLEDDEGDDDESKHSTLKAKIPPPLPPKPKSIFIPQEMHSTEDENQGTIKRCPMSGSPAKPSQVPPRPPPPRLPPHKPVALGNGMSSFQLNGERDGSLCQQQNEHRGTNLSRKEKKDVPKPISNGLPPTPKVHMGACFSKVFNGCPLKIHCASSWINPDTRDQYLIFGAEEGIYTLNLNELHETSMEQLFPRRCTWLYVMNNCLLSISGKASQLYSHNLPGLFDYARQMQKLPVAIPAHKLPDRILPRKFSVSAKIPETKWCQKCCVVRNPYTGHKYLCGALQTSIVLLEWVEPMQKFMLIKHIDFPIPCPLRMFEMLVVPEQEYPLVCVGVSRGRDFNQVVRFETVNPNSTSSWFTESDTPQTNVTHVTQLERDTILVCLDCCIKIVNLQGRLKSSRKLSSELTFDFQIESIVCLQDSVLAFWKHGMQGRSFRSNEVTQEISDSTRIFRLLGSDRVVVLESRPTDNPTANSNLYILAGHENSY

[3] = tested on: T3, Receptor-type tyrosine-protein kinase FLT3 (Homo sapiens), P36888 [D835H]; assay: Competitive binding affinity to FLT3 D835H mutant (unknown origin) at 10 uM in presence of ATP relative to control
T3 sequence (whole entry): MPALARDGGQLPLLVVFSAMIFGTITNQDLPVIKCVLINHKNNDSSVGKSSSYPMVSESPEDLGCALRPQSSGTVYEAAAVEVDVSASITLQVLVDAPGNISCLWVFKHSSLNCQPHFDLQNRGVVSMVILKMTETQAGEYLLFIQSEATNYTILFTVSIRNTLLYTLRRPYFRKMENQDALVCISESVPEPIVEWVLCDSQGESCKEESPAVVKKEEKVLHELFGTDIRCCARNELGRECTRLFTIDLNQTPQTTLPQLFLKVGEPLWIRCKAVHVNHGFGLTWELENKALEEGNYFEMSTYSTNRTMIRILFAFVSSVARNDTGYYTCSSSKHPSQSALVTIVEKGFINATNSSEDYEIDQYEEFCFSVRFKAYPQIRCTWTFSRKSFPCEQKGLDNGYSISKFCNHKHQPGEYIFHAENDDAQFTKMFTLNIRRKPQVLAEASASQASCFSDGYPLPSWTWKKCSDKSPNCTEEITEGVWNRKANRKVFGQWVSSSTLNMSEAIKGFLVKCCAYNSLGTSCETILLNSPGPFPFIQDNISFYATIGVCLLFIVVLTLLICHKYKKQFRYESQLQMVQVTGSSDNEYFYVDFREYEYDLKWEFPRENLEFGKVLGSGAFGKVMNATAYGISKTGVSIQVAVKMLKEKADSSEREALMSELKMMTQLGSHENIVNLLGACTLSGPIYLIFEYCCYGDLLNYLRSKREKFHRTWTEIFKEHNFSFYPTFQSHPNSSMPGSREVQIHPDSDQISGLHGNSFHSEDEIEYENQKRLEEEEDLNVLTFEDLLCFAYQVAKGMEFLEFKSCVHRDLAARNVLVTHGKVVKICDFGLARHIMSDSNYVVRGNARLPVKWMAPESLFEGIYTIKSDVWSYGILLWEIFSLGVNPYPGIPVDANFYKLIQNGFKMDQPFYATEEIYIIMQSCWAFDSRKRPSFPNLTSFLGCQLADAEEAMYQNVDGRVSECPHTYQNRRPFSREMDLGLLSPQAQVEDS

| inhibition [1] | inhibition [2] | inhibition [3] | Structure (SMILES) |
| --- | --- | --- | --- |
| 96% | < 50% | 100% | O[C@H]1CC[C@H](Nc2nccc(-n3ncc4ccccc43)n2)CC1 |
| 95% | < 50% | < 50% | O[C@H]1CC[C@H](Nc2nccc(-n3ccc4ccccc43)n2)CC1 |
| – | 97% | 100% | O[C@H]1CC[C@H](Nc2nccc(-c3n[nH]c4ccccc34)n2)CC1 |
| 98% | < 50% | 99% | O[C@H]1CC[C@H](Nc2nccc(-n3nnc4ccccc43)n2)CC1 |
